Test results reported in article PMC8533176, “1,5-Benzodiazepin-2(3H)-ones: In Vitro Evaluation as Antiparkinsonian Agents” (Antioxidants, 2021).

Tests used:
[1] = Chemical reactivity with H2O2; format: physicochemical; conditions: H2O2 500 µM, 37 °C, 4 h, DMEM:F12 without cells
Procedure: In our case, before running the protection experiments under oxidative stress conditions, we carried out experiments to assess the potential reactivity of compounds 9, 11, 13, and 18 at four different concentrations (5, 10, 20, and 40 µM) with H2O2 500 µM at 37 °C for 4 h in DMEM:F12 (without phenol red, FBS, and cells). Curcumin was used as a control compound.

SH-SY5Y cells [2] = assay: Intracellular ROS levels (DCFH2-DA); format: cell-based, human; conditions: 400 µM H2O2 4 h; compounds 24 h before
Procedure: Intracellular ROS levels were determined using dichlorofluorescein diacetate (DCFH2-DA) according to Wang et al.. DCFH2-DA is cleaved by intracellular esterases and is oxidized by ROS to form the fluorescent compound DCF, which represents the ROS level. Therefore, 3 × 10^3 SH-SY5Y cells were seeded in 96-well culture black clear bottom plates and after 24 h were treated with the test compound for an additional 24 h. Then, they were exposed to H2O2 for 4 h. After the incubation period, cells were washed twice with Hanks buffer and loaded with 20 µM DCFH2-DA (in FBS-free culture medium) for 40 min in dark at 37 °C in a CO2 incubator. At the end of the dye incubation period, they were washed twice with Hanks buffer to remove the extracellular DCFH2-DA. Fluorescence was measured with a Varioskan microplate reader at λex = 485 nm and λem = 535 nm wavelengths. Results are expressed as a percentage of the fluorescent increase compared with that of the control. All the experiments were performed at least three times in quadruplicate for each compound concentration.

SH-SY5Y cells [3] = assay: Lipid peroxidation (MDA, TBARS); format: cell-based, human; conditions: 250 µM H2O2 24 h; 10 and 20 µM 24 h before
Procedure: For MDA studies, 2 × 10^5 SH-SY5Y cells were seeded in 6-well culture plates. After 24 h, cells were treated with the test compound and incubated for another 24 h. After compound treatment, cells were exposed to H2O2 for 24 h. Then, the cells were washed twice with cold 50 mM PBS buffer, detached, and lysed with lysis buffer, and TBA was added to each sample tube and vortexed. The reaction mixture was incubated at 96 °C for 60 min. After incubation, samples were cooled and centrifuged 10 min at 10^4 rpm. Samples were dispensed in 96-well culture black clear bottom plates, and fluorescence was measured with a Varioskan microplate reader at λex = 540 nm and λem = 590 nm wavelengths. Protein concentration was measured by the Bradford protein assay. The levels of MDA were expressed as nmol/mg protein. Experiments were performed four times in triplicate.

[4] = system: Caspase-3 activity in SH-SY5Y cells; assay: Caspase-3 activity; format: cell-based, human; conditions: H2O2 500 µM 4 h; compound 24 h before
Procedure: Caspase-3 activity was measured using the Abcam fluorimetric kit (ab39383) according to the manufacturer’s instructions. Cells are washed with ice-cold PBS and lysed with lysis buffer. After compound and stressor treatments, SH-SY5Y cells were scraped off from p6 plates and collected in a 1.5 mL Eppendorf vial. The cell suspension was then centrifuged at 9000× g for 10 min at 4 °C. The supernatant was collected and stored at −80 °C for 24 h. Caspase 3 activity was measured as the ability of the cell extract to cleave the […] fluorochrome. The sample’s protein concentration was determined by the Bradford method. The reaction assay was performed by the addition of 50 μL of the cell lysate into the wells of a black 96-well culture plate followed by the addition of 50 μL of 2× reaction buffer containing DTT (10 mM) and caspase-3 substrate DEVD-AFC (final concentration 50 μM). Reagents were mixed by shaking the plate for 2 min at 300 rpm and then incubated at 37 °C for 2 h. Caspase-3 activity was measured as fluorescence intensity in a Varioskan microplate reader at λex = 400 nm and λem = 505 nm wavelengths. Relative fluorescence units (RFU)/mg of protein were calculated, and the fold increase in Caspase-3 activity was compared with that of the control.

SH-SY5Y cells [5] = assay: Neuroprotection against H2O2-induced oxidative stress, MTT; conditions: H2O2 250 µM 24 h; compounds 5-50 µM 24 h before; Figure 8

Structure (SMILES): O=C1CC(c2ccccc2)=Nc2ccccc2N1 [Compound 18, 4-Phenyl-1H-1,5-benzodiazepin-2(3H)-one]
- Reaction with H2O2 [1]: did not show any significant reaction
- Intracellular ROS level reduction (SH-SY5Y cells [2]): ROS level reduction at all doses
- Effect on MDA levels (SH-SY5Y cells [3]): significantly prevented
- Caspase-3 activity reduction [4]: reduced the levels of activated caspase 3
- Neuroprotection effect, cell viability (MTT) (SH-SY5Y cells [5]): significantly improved
